Laboratory results published in ChEMBL document CHEMBL1275550, “In vitro activity of doripenem, a carbapenem for the treatment of challenging infections caused by gram-negative bacteria, against recent clinical isolates from the United States” (2008).

How the values were obtained:
Type in all cases: functional
Pseudomonas aeruginosa [1] = assay: Antimicrobial activity against imipenem susceptible Pseudomonas aeruginosa assessed as resistant isolate by broth microdilution method
Serratia marcescens [2] = assay: Antimicrobial activity against ceftazidime non-susceptible Serratia marcescens assessed as resistant isolate by broth microdilution method in presence of Tazobactam
Klebsiella pneumoniae [3] = assay: Antimicrobial activity against ESBL producing Klebsiella pneumoniae by broth microdilution method in presence of Tazobactam
Acinetobacter [4] = assay: Antimicrobial activity against imipenem non-susceptible Acinetobacter assessed as resistant isolate by broth microdilution method in presence of Tazobactam
Klebsiella pneumoniae [5] = assay: Antimicrobial activity against Non-ESBL Klebsiella pneumoniae assessed as susceptible isolate by broth microdilution method in presence of Tazobactam
Klebsiella pneumoniae [6] = assay: Antimicrobial activity against Non-ESBL Klebsiella pneumoniae assessed as resistant isolate by broth microdilution method in presence of Tazobactam
Enterobacteriaceae [7] = assay: Antimicrobial activity against ceftazidime-susceptible Enterobacteriaceae by broth microdilution method in presence of Tazobactam
Acinetobacter [8] = assay: Antimicrobial activity against imipenem susceptible Acinetobacter by broth microdilution method in presence of Tazobactam
Acinetobacter [9] = assay: Antimicrobial activity against imipenem non-susceptible Acinetobacter by broth microdilution method in presence of Tazobactam
Pseudomonas aeruginosa [10] = assay: Antimicrobial activity against Pseudomonas aeruginosa isolated from non-ICU patient assessed as resistant isolate by broth microdilution method in presence of Tazobactam
Pseudomonas aeruginosa [11] = assay: Antimicrobial activity against ceftazidime susceptible Pseudomonas aeruginosa assessed as susceptible isolate by broth microdilution method in presence of Tazobactam
Escherichia coli [12] = assay: Antimicrobial activity against Non-ESBL Escherichia coli assessed as intermediate isolate by broth microdilution method in presence of Tazobactam
Pseudomonas aeruginosa [13] = assay: Antimicrobial activity against imipenem non-susceptible Pseudomonas aeruginosa by broth microdilution method in presence of Tazobactam
Acinetobacter [14] = assay: Antimicrobial activity against imipenem non-susceptible Acinetobacter assessed as intermediate isolate by broth microdilution method in presence of Tazobactam
Pseudomonas aeruginosa [15] = assay: Antimicrobial activity against imipenem susceptible Pseudomonas aeruginosa by broth microdilution method in presence of Tazobactam
Enterobacter cloacae [16] = assay: Antimicrobial activity against Enterobacter cloacae with nonderepressed AmpC beta-lactamsae assessed as resistant isolate by broth microdilution method in presence of Tazobactam
Pseudomonas aeruginosa [17] = assay: Antimicrobial activity against Pseudomonas aeruginosa isolated from non-ICU patient assessed as susceptible isolate by broth microdilution method in presence of Tazobactam
Escherichia coli [18] = assay: Antimicrobial activity against Non-ESBL Escherichia coli assessed as susceptible isolate by broth microdilution method in presence of Tazobactam
Citrobacter [19] = assay: Antimicrobial activity against Citrobacter with derepressed AmpC beta-lactamsae assessed as intermediate isolate by broth microdilution method in presence of Tazobactam
Proteus mirabilis [20] = assay: Antimicrobial activity against ESBL producing Proteus mirabilis assessed as susceptible isolate by broth microdilution method in presence of Tazobactam
Pseudomonas aeruginosa [21] = assay: Antimicrobial activity against ceftazidime non-susceptible Pseudomonas aeruginosa assessed as susceptible isolate by broth microdilution method in presence of Tazobactam
Enterobacter cloacae [22] = assay: Antimicrobial activity against Enterobacter cloacae with derepressed AmpC beta-lactamsae assessed as susceptible isolate by broth microdilution method in presence of Tazobactam
Citrobacter [23] = assay: Antimicrobial activity against Citrobacter with nonderepressed AmpC beta-lactamsae assessed as intermediate isolate by broth microdilution method in presence of Tazobactam
Serratia marcescens [24] = assay: Antimicrobial activity against Ceftazidime non-susceptible Serratia marcescens by broth microdilution method in presence of tazobactam
Serratia marcescens [25] = assay: Antimicrobial activity against ceftazidime susceptible Serratia marcescens by broth microdilution method in presence of Tazobactam
Pseudomonas aeruginosa [26] = assay: Antimicrobial activity against imipenem susceptible Pseudomonas aeruginosa assessed as susceptible isolate by broth microdilution method in presence of Tazobactam
Serratia marcescens [27] = assay: Antimicrobial activity against ceftazidime susceptible Serratia marcescens assessed as susceptible isolate by broth microdilution method in presence of Tazobactam
Citrobacter [28] = assay: Antimicrobial activity against Citrobacter with nonderepressed AmpC beta-lactamsae assessed as resistant isolate by broth microdilution method in presence of Tazobactam
Pseudomonas aeruginosa [29] = assay: Antimicrobial activity against Pseudomonas aeruginosa isolated from ICU patient assessed as susceptible isolate by broth microdilution method in presence of Tazobactam
Enterobacter cloacae [30] = assay: Antimicrobial activity against Enterobacter cloacae with derepressed AmpC beta-lactamsae assessed as resistant isolate by broth microdilution method in presence of Tazobactam
Pseudomonas aeruginosa [31] = assay: Antimicrobial activity against imipenem non-susceptible Pseudomonas aeruginosa assessed as resistant isolate by broth microdilution method in presence of Tazobactam
Pseudomonas aeruginosa [32] = assay: Antimicrobial activity against imipenem non-susceptible Pseudomonas aeruginosa assessed as intermediate isolate by broth microdilution method in presence of Tazobactam
Enterobacteriaceae [33] = assay: Antimicrobial activity against ceftazidime-susceptible Enterobacteriaceae assessed as susceptible isolate by broth microdilution method in presence of Tazobactam
Pseudomonas aeruginosa [34] = assay: Antimicrobial activity against Ceftazidime non-susceptible Pseudomonas aeruginosa assessed as resistant isolate by broth microdilution method in presence of tazobactam
Enterobacteriaceae [35] = assay: Antimicrobial activity against ceftazidime-susceptible Enterobacteriaceae assessed as intermediate isolate by broth microdilution method in presence of Tazobactam
Pseudomonas aeruginosa [36] = assay: Antimicrobial activity against ceftazidime non-susceptible Pseudomonas aeruginosa by broth microdilution method in presence of Tazobactam
Citrobacter [37] = assay: Antimicrobial activity against Citrobacter with derepressed AmpC beta-lactamsae assessed as resistant isolate by broth microdilution method in presence of Tazobactam
Acinetobacter [38] = assay: Antimicrobial activity against imipenem susceptible Acinetobacter assessed as intermediate isolate by broth microdilution method in presence of Tazobactam
Pseudomonas aeruginosa [39] = assay: Antimicrobial activity against imipenem susceptible Pseudomonas aeruginosa assessed as intermediate isolate by broth microdilution method in presence of Tazobactam
Escherichia coli [40] = assay: Antimicrobial activity against ESBL producing Escherichia coli assessed as susceptible isolate by broth microdilution method in presence of Tazobactam
Acinetobacter [41] = assay: Antimicrobial activity against imipenem susceptible Acinetobacter assessed as resistant isolate by broth microdilution method in presence of Tazobactam
Proteus mirabilis [42] = assay: Antimicrobial activity against Non-ESBL Proteus mirabilis assessed as susceptible isolate by broth microdilution method in presence of Tazobactam
Escherichia coli [43] = assay: Antimicrobial activity against Non-ESBL Escherichia coli by broth microdilution method in presence of Tazobactam
Enterobacter cloacae [44] = assay: Antimicrobial activity against Enterobacter cloacae with derepressed AmpC beta-lactamsae by broth microdilution method in presence of Tazobactam
Pseudomonas aeruginosa [45] = assay: Antimicrobial activity against Ceftazidime susceptible Pseudomonas aeruginosa assessed as intermediate isolate by broth microdilution method in presence of tazobactam
Pseudomonas aeruginosa [46] = assay: Antimicrobial activity against Ceftazidime non-susceptible Pseudomonas aeruginosa assessed as intermediate isolate by broth microdilution method in presence of tazobactam
Citrobacter [47] = assay: Antimicrobial activity against Citrobacter assessed as resistant isolate by broth microdilution method

## CC(C)(O/N=C(\C(=O)N[C@@H]1C(=O)N2C(C(=O)[O-])=C(C[n+]3ccccc3)CS[C@H]12)c1csc(N)n1)C(=O)O [CEFTAZIDIME]
Pseudomonas aeruginosa [1]
  Activity: 6.9%

## CCN1CCN(C(=O)N[C@@H](C(=O)N[C@@H]2C(=O)N3[C@@H]2SC(C)(C)[C@@H]3C(=O)O)c2ccccc2)C(=O)C1=O [PIPERACILLIN]
Serratia marcescens [2]
  Activity: 50%
Klebsiella pneumoniae [3]
  MIC50: > 128 µg/mL
  MIC90: > 128 µg/mL
Acinetobacter [4]
  Activity: 96.1%
Klebsiella pneumoniae [5]
  Activity: 95.9%
Klebsiella pneumoniae [6]
  Activity: 1.7%
Enterobacteriaceae [7]
  MIC50: 4 µg/mL
  MIC90: 8 µg/mL
Acinetobacter [8]
  MIC50: 16 µg/mL
  MIC90: > 128 µg/mL
Acinetobacter [9]
  MIC50: > 128 µg/mL
  MIC90: > 128 µg/mL
Pseudomonas aeruginosa [10]
  Activity: 13%
Pseudomonas aeruginosa [11]
  Activity: 96.3%
Escherichia coli [12]
  Activity: 3.2%
Pseudomonas aeruginosa [13]
  MIC50: 16 µg/mL
  MIC90: > 128 µg/mL
Acinetobacter [14]
  Activity: 3.9%
Pseudomonas aeruginosa [15]
  MIC50: 16 µg/mL
  MIC90: 64 µg/mL
Enterobacter cloacae [16]
  Activity: 3.5%
Pseudomonas aeruginosa [17]
  Activity: 87%
Escherichia coli [18]
  Activity: 93.6%
Citrobacter [19]
  Activity: 29.1%
Proteus mirabilis [20]
  Activity: 100%
Pseudomonas aeruginosa [21]
  Activity: 17.3%
Enterobacter cloacae [22]
  Activity: 5.8%
Citrobacter [23]
  Activity: 3.7%
Serratia marcescens [24]
  MIC50: 64 µg/mL
  MIC90: > 128 µg/mL
Serratia marcescens [25]
  MIC50: 4 µg/mL
  MIC90: 16 µg/mL
Pseudomonas aeruginosa [26]
  Activity: 90.6%
Serratia marcescens [27]
  Activity: 93.6%
Citrobacter [28]
  Activity: 2.6%
Pseudomonas aeruginosa [29]
  Activity: 78.4%
Enterobacter cloacae [30]
  Activity: 82.5%
Pseudomonas aeruginosa [31]
  Activity: 27.1%
Pseudomonas aeruginosa [32]
  Activity: 0%
Enterobacteriaceae [33]
  Activity: 95.8%
Pseudomonas aeruginosa [34]
  Activity: 82.7%
Enterobacteriaceae [35]
  Activity: 2.3%
Pseudomonas aeruginosa [36]
  MIC50: > 128 µg/mL
  MIC90: > 128 µg/mL
Citrobacter [37]
  Activity: 67.3%
Acinetobacter [38]
  Activity: 18.1%
Pseudomonas aeruginosa [39]
  Activity: 0%
Escherichia coli [40]
  Activity: 53.3%
Acinetobacter [41]
  Activity: 29.8%
Proteus mirabilis [42]
  Activity: 99.4%
Escherichia coli [43]
  MIC50: 4 µg/mL
  MIC90: 8 µg/mL
Enterobacter cloacae [44]
  MIC50: > 128 µg/mL
  MIC90: > 128 µg/mL
Pseudomonas aeruginosa [45]
  Activity: 0%
Pseudomonas aeruginosa [46]
  Activity: 0%

## C[C@@H](O)[C@H]1C(=O)N2C(C(=O)O)=C(SCCNC=N)C[C@H]12 [IMIPENEM ANHYDROUS]
Citrobacter [47]
  Activity: 0.2%
